Marks after values point to notes of the source that are not given here.
How the values were obtained:
[1] = Procedure, shortened: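 Female SPF Balb/c nude mice bearing subcutaneous HCT-116 xenografts (3×10^6 cells, right hind limb), grouped at 60–150 mm^3, 6 per group; vehicle ethanol/Cremophor EL/saline 5:5:90. Body weight thrice weekly; tumours excised and weighed at sacrifice; Mean±SEM, unpaired t-test, P<0.05.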
[2] = test system: HCT-116 colon cancer xenografts; assay: Tumor growth inhibition of HCT-116 colon cancer xenografts in tumor-bearing nude mice (tumor volume, TGI %, RTV, T/C %); assay type: in vivo, Balb/c Nude mice; details: for T/C % (relative tumor proliferation rate): single-dose intraperitoneal, dosage mg/kg: G3, G4, G8 350, G5, G9 325, G6 300, G7 250;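 for T/C % (relative tumor proliferation rate): control C is the vehicle-treated model control group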
Procedure, shortened: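 Nude mice inoculated with HCT-116 cells (about 3×10^7 cells/mL in serum-free medium). Tumor diameter measured three times weekly and volume computed as V=3/4π(D/2)^3. Activity expressed as TGI (%) and T/C (%) from relative tumor volume Vt/V0, with V0 taken at grouping and dosing start; P<0.05 significant.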

[3] = test system: ICR mice; assay: in vivo; details: female ICR mice; single-dose ip
Procedure, shortened: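 Female SPF ICR mice received a single ip dose in ethanol/Cremophor EL/saline (5:5:90), with dose lowered after deaths and raised otherwise. MTD defined as dose causing no death, no >10% weight loss versus Day 0 and no significant side effects; daily weights and twice-daily clinical observation over 7-14 days.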

[4] = Day 0, G3-G9 groups, single IP dose, Mean±SEM
[5] = Day 4, G3-G9 groups, single IP dose, Mean±SEM
[6] = Day 6, G3-G9 groups, single IP dose, Mean±SEM
[7] = Day 8, G3-G9 groups, single IP dose, Mean±SEM
[8] = Day 11, G3-G9 groups, single IP dose, Mean±SEM
[9] = Day 13, G3-G9 groups, single IP dose, Mean±SEM
[10] = Day 15, G3-G9 groups, single IP dose, Mean±SEM
[11] = Day 18, G3-G9 groups, single IP dose, Mean±SEM
[12] = Day 20, G3-G9 groups, single IP dose, Mean±SEM
[13] = Day 22, G3-G9 groups, single IP dose, Mean±SEM

CCCCOC(=O)Nc1nc(=O)n([C@@H]2O[C@H](CO)[C@@H](O)C2(F)F)cc1Br [Compound G6, 5-Br-4-N-(n-butoxycarbonyl)-2′-deoxy-2′,2′-difluorocytidine]
Weight change rate, Day 0 [1, 4]: 0.00 ± 0.00%
Weight of mice, Day 0 [1, 4]: 21.47 ± 0.65 g
Weight change rate, Day 4 [1, 5]: 0.00 ± 0.00%
Weight of mice, Day 4 [1, 5]: 19.30 ± 0.00 g
animals died on Day 4 after administration ([1]; Day 4, G4 350 mg/kg, G8 350 mg/kg, G6 300 mg/kg, single IP, 6 mice a group): Five
Weight change rate, Day 6 [1, 6]: 0.52 ± 0.00%
Weight of mice, Day 6 [1, 6]: 19.40 ± 0.00 g
Weight change rate, Day 8 [1, 7]: 1.55 ± 0.00%
Weight of mice, Day 8 [1, 7]: 19.60 ± 0.00 g
Weight change rate, Day 11 [1, 8]: 6.22 ± 0.00%
Weight of mice, Day 11 [1, 8]: 20.50 ± 0.00 g
Weight change rate, Day 13 [1, 9]: 7.77 ± 0.00%
Weight of mice, Day 13 [1, 9]: 20.80 ± 0.00 g
Weight change rate, Day 15 [1, 10]: 8.29 ± 0.00%
Weight of mice, Day 15 [1, 10]: 20.90 ± 0.00 g
Weight change rate, Day 18 [1, 11]: 5.18 ± 0.00%
Weight of mice, Day 18 [1, 11]: 20.30 ± 0.00 g
Weight change rate, Day 20 [1, 12]: 4.66 ± 0.00%
Weight of mice, Day 20 [1, 12]: 20.20 ± 0.00 g
Weight change rate, Day 22 [1, 13]: 6.22 ± 0.00%
Weight of mice, Day 22 [1, 13]: 20.50 ± 0.00 g
Day 22 Mortality ([1]; Day 22, single IP dose (mg/kg)): 83%
Day 0 (RTV) [2, 4]: 1.00 ± 0.00
Tumor volume, Day 0 [2, 4]: 80.31 ± 24.42* mm^3
T/C % (relative tumor proliferation rate) ([2]; Day 0): 0.09%
Day 4 (TGI %) ([2]; Day 4, G3-G9 groups, single IP dose): 82.09%
Day 4 (RTV) [2, 5]: 1.42 ± 0.00
Tumor volume, Day 4 [2, 5]: 47.71 ± 0.00 mm^3
T/C % (relative tumor proliferation rate) ([2]; Day 4): 75.54%
Day 6 (TGI %) ([2]; Day 6, G3-G9 groups, single IP dose): 84.52%
Day 6 (RTV) [2, 6]: 1.95 ± 0.00
Tumor volume, Day 6 [2, 6]: 65.45 ± 0.00 mm^3
T/C % (relative tumor proliferation rate) ([2]; Day 6): 64.68%
Day 8 (TGI %) ([2]; Day 8, G3-G9 groups, single IP dose): 78.47%
Day 8 (RTV) [2, 7]: 3.38 ± 0.00
Tumor volume, Day 8 [2, 7]: 113.10 ± 0.00 mm^3
T/C % (relative tumor proliferation rate) ([2]; Day 8): 89.68%
Day 11 (TGI %) ([2]; Day 11, G3-G9 groups, single IP dose): 72.53%
Day 11 (RTV) [2, 8]: 6.59 ± 0.00
Tumor volume, Day 11 [2, 8]: 220.89 ± 0.00 mm^3
T/C % (relative tumor proliferation rate) ([2]; Day 11): 110.90%
Day 13 (TGI %) ([2]; Day 13, G3-G9 groups, single IP dose): 67.12%
Day 13 (RTV) [2, 9]: 11.39 ± 0.00
Tumor volume, Day 13 [2, 9]: 381.70 ± 0.00 mm^3
T/C % (relative tumor proliferation rate) ([2]; Day 13): 132.45%
Day 15 (TGI %) ([2]; Day 15, G3-G9 groups, single IP dose): 50.67%
Day 15 (RTV) [2, 10]: 20.80 ± 0.00
Tumor volume, Day 15 [2, 10]: 696.91 ± 0.00 mm^3
T/C % (relative tumor proliferation rate) ([2]; Day 15): 198.59%
Day 18 (TGI %) ([2]; Day 18, G3-G9 groups, single IP dose): 22.38%
Day 18 (RTV) [2, 11]: 42.88 ± 0.00
Tumor volume, Day 18 [2, 11]: 1436.76 ± 0.00 mm^3
T/C % (relative tumor proliferation rate) ([2]; Day 18): 311.29%
Day 20 (TGI %) ([2]; Day 20, G3-G9 groups, single IP dose): 16.62%
Day 20 (RTV) [2, 12]: 52.73 ± 0.00
Tumor volume, Day 20 [2, 12]: 1767.15 ± 0.00 mm^3
T/C % (relative tumor proliferation rate) ([2]; Day 20): 332.56%
Day 22 (TGI %) ([2]; Day 22, G3-G9 groups, single IP dose): 18.00%
Day 22 (RTV) [2, 13]: 64.00 ± 0.00
Tumor volume, Day 22 [2, 13]: 2144.66 ± 0.00 mm^3
T/C % (relative tumor proliferation rate) ([2]; Day 22): 329.10%
dose that could be tolerated (maximum tolerated dose, MTD) [3]: 200 mg/kg
